Experimental data: paper PMC12333011, “Selective Modulation of Trk Receptors by Cyclo-Organopeptides” (ACS Chemical Neuroscience, 2025)
Square brackets hold non-standard residues; d marks the D form.

Columns and labels:
HeLa-TrkA cells = conditions: for activity class in cell survival assay, TrkA: HeLa-TrkA cells, 50 μM compound, with or without 0.2 nM NGF, 48-72 h
Method: (§1) Throughout, compounds were tested at 50 μM in TrkA- and C-expressing cells and 0.4 μM in TrkB-expressing cells. […] Samples were tested for promoting cell survival in the absence of NTs (agonism) or in the presence of suboptimal concentrations of NTs whose loops they were designed to mimic (NT potentiation).
(§2) Cells were seeded at a density of 2000 cells per well. Cells were incubated in complete media for 24
(§3) hours. The media was aspirated, the cells washed twice with Dulbecco’s Phosphate Buffered Saline,
(§4) and the media was replaced with serum-free media to induce apoptosis unless otherwise halted.
(§5) Compound was added to cells (50 μM compound to HeLa-TrkA and NIH3T3-TrkC cells, 0.4 μM for
(§6) HEK293-TrkB) alone (agonism) or in the presence of suboptimal neurotrophin (~25 to 30% survival,
(§7) 0.2 nM NGF, 0.6 nM BDNF, or 0.2 nM NT3 for TrkA, B, or C expressing cells respectively). Cell
(§8) survival was measured via alamarBlue assay after 48-72 hours to determine cell viability. Data was
(§9) normalized to DMSO treatment (0%) and optimal neurotrophin (100%, 2.0 nM NGF, 1.0 nM BDNF,
(§10) 2.0 nM NT-3 for TrkA, B, or C expressing cells, respectively).
HeLa-TrkA cells were treated with 50 μM compound with or without suboptimal (0.2 nM) levels of
NGF and cell survival was analyzed after 48-72 hours by the alamarBlue assay. Data was
normalized to DMSO (0%) and 2.0 nM NGF (100%). Data is represented as the average of 3-6
(§11) points +/- standard deviation from the mean.
(§12) with a serial dilution of the compound in serum free media with or without suboptimal neurotrophin
(§13) and incubated for 48-72 hours, after which an alamarBlue assay was done to determine cell viability.
(§14) Cell viability was normalized to DMSO (0%) and optimal neurotrophin (100%), depending on cell type.
(§15) EC50 was calculated in GraphPad Prism 10.2 using the dose response “[agonist] vs response –
(§16) Variable slope (four parameters)” function. Data is presented as the mean +/- standard deviation of
an experiment with 3-6 replicates.

[1] = system: dry eye disease (desiccating stress to the eye); conditions: summarised from published work, ref number not given, cited from earlier work
Text: All of the data for these in vivo assays is now published , and will only be summarized here. […] This negative result is surprising because D3 is a potentiator of NGF in TrkA transfectants.

HEK293-TrkB cells = conditions: for activity class in cell survival assay, TrkB: HEK293-TrkB cells, 0.4 μM compound, with or without 0.6 nM BDNF, 48-72 h; for shape of dose-response curve, cell survival: HEK293-TrkB cells with 0.6 nM BDNF (suboptimal), EC50s could not be determined
Method: as §1
Cell Survival Compound Screen
as §2, §3, §4, §5, §6, §7, §8, §9, §10
Cell Survival of HEK293-TrkB Cells
HEK293-TrkB cells were treated with 0.4 μM compound with or without suboptimal (0.6 nM) levels of
BDNF and cell survival was analyzed after 48-72 hours by the alamarBlue assay. Data was
normalized to DMSO (0%) and 1.0 nM BDNF (100%). Data is represented as the average of 3-6
as §11
Cell Survival Dose Response
The most promising compounds from the screen were selected for each cell line. Cells were treated
as §12, §13, §14, §15, §16
an experiment with 3-6 replicates.

NIH3T3-TrkC cells = conditions: for activity class in cell survival assay, TrkC: NIH3T3-TrkC cells, 50 μM compound, with or without 0.2 nM NT-3, 48-72 h
Method: as §1
Cell Survival Compound Screen
as §2, §3, §4, §5, §6, §7, §8, §9, §10
Cell Survival of NIH3T3-TrkC Cells
NIH3T3-TrkC cells were treated with 50 μM compound with or without suboptimal (0.2 nM) levels of
NT-3 and cell survival was analyzed after 48-72 hours by the alamarBlue assay. Data was
normalized to DMSO (0%) and 2.0 nM NT-3 (100%). Data is represented as the average of 3-6
as §11
Cell Survival Dose Response
as §12, §13, §14, §15, §16
an experiment with 3-6 replicates.

Question: Which EC50 (HeLa-TrkA cells) does the source give for `CC[C@H](C)[C@@H]1NC(=O)[C@H](CC(N)=O)NC(=O)[C@H](C(C)C)n2cc(nn2)C[C@@H](C(=O)N[C@@H](CCCCNS(=O)(=O)c2cccc3c(N(C)C)cccc23)C(=O)O)NC(=O)[C@H](Cc2ccccc2)NC(=O)[C@H](C(C)C)NC(=O)[C@H](CO)NC(=O)[C@H](CC(N)=O)NC(=O)[C@H](CC(N)=O)NC1=O` [1a(ii)ext] here?
Answer: Its EC50 is 7.1 µM.

Question: And the “activity class in cell survival assay, TrkA” value (HeLa-TrkA cells)?
Answer: The value was “selective TrkA agonists”.

Question: With `CC[C@H](C)[C@@H]1NC(=O)[C@@H]2C[C@@H](CN2)NC(=O)[C@H](CO)NC(=O)[C@H](CC(N)=O)NC(=O)[C@H](CC(N)=O)NC1=O` [3a(ii)] as the compound, how does the “activity in the preliminary in vivo screen” value ([1]; murine dry eye disease model) read?
Answer: The value was “no significant activity”.

Question: What about the EC50 (HeLa-TrkA cells) of the same compound?
Answer: Its EC50 is 10.2 µM.

Question: What about the “activity class in cell survival assay, TrkA” value (HeLa-TrkA cells) of the same compound?
Answer: Its value is “selective TrkA agonists”.

Question: Which results are given for `CC[C@H](C)[C@@H]1NC(=O)[C@H](CC(=O)O)NC(=O)[C@@H]2C[C@@H](CN2)NC(=O)CNC(=O)[C@H](CCCNC(=N)N)NC1=O` [3c(i)]?
Answer: EC50 (HEK293-TrkB cells): 1 µM; maximum activity, % of the maximum survival imparted by BDNF (HEK293-TrkB cells; 24 h): ~53%; activity class in cell survival assay, TrkB (HEK293-TrkB cells): potentiator of BDNF and NT-3; corneal barrier function ([1]; murine dry eye disease model): increased corneal barrier function; maximum activity, % survival compared with that imparted by NT-3 (NIH3T3-TrkC cells; 24 h): ~52%; activity class in cell survival assay, TrkC (NIH3T3-TrkC cells): potentiator of BDNF and NT-3; activity class in cell survival assay, TrkA (HeLa-TrkA cells): agonist of TrkA

Question: For “M DSKKR (sidechain bridge or staple) [1b(iii)]”, which “shape of dose-response curve, cell survival” value (HEK293-TrkB cells) is on record?
Answer: Its value is “bell-shaped dose–response curve”.

Question: What about the “activity class in cell survival assay, TrkB” value (HEK293-TrkB cells) of the same compound?
Answer: The value was “BDNF potentiators”.

Question: For cyclo(DSKK) [3b(iii)], which “shape of dose-response curve, cell survival” value (HEK293-TrkB cells) is on record?
Answer: The value was “bell-shaped dose–response curve”.

Question: What about the “activity class in cell survival assay, TrkB” value (HEK293-TrkB cells) of the same compound?
Answer: The value was “BDNF potentiators”.

Question: Which “NFκB activation (marker of inflammation)” value ([1]; biochemical experiments in the dry eye studies) does the source give for cyclo([dN]-Lys-Val) [4c(iii)nKV] here?
Answer: Its value is “decreases NFκB activation”.

Question: And the “conjunctival goblet cell densities” value ([1]; murine dry eye disease model, further studies)?
Answer: Its value is “increase conjunctival goblet cell densities”.

Question: What about the corneal barrier function ([1]; murine dry eye disease model) of the same compound?
Answer: Its corneal barrier function is “increased corneal barrier function”.

Question: And the “activity class in cell survival assay, TrkC” value (NIH3T3-TrkC cells)?
Answer: The value was “selectively modulate cell survival through the TrkC receptors”.

Question: What about the EC50 (NIH3T3-TrkC cells; read-out: EC50, cell survival of TrkC cells with suboptimal NT-3 (unit inferred), NIH3T3-TrkC cells with 0.2 nM NT-3, sigmoidal dose response, 48-72 h, alamarBlue) of the same compound?
Answer: The EC50 was 8.7 µM.
